Reference: patent US20140094465A1, “Compounds as S-Nitrosoglutathione Reductase Inhibitors” (N30 PHARMACEUTICALS, INC., priority 2011, published 2014)
Where two headings read alike, the source gives them in different places.

What was measured:
[1] = molecular target: T1, S-nitrosoglutathione reductase (GSNOR) (Homo sapiens, UniProt P11766); test: GSNOR assay (inhibition of GSNOR activity, NADH absorbance at 340 nm); format: biochemical
T1 construct: made in house; host or cells: E. coli
Summary of the method: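 Recombinant GSNOR purified from E. coli, tag removed. Final conditions: 100 mM NaPO4 pH 7.4, 0.240 mM GSNO, 0.300 mM NADH, 0.5 μg/mL enzyme, 1% DMSO; NADH loss followed as 340 nm absorbance change over 3 min at 25 °C. Compounds 100–0.003 μM, triplicate; IC50 by curve analysis.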

GSNOR and NAD+ = molecular target: T2, GSNOR and NAD+ (Homo sapiens, UniProt P11766); test: X-ray crystallography of inhibitor bound to GSNOR and NAD+, distance measurement; conditions: crystal structure bound to GSNOR and NAD+; O atom of hydroxyl to C atom of carbonyl
T2 construct: made in house; host or cells: E. coli
T2 sequence (P11766 whole entry): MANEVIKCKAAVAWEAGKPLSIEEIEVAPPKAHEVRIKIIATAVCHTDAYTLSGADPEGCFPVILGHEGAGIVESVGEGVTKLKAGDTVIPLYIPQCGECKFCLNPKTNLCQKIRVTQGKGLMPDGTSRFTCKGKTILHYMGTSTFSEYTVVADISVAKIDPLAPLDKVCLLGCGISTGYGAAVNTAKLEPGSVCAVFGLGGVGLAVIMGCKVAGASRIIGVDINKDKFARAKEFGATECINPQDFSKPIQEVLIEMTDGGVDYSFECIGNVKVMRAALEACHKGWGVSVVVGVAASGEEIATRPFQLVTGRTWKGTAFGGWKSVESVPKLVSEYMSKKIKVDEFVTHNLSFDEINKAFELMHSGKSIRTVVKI
Source text: Single crystal x-ray diffraction is a method useful to understanding the 3-dimensional structure of the binding pocket. The solved crystal structures offer significant information about the GSNOR binding pocket and the interactions of the inhibitors within the binding site. The crystal structure of the ternary complex of GSNOR, NAD+, and Compound IV-10 (Table 4, Example 1) (4-(7-hydroxy-4-oxo-2-(trifluoromethyl)-4H-chromen-3-yl)benzoic acid) was solved. The enzyme-ligand complex crystallized as a homodimer with Compound IV-10 binding to each GSNOR monomer. The key pharmacophores identified from the ternary complex of GSNOR inhibitor with GSNOR and NAD+ are the hydroxyl group on the bicyclic ring of Compound IV-10, which hydrogen bonds to histidine 66, cysteine 44, cysteine 173 and threonine 46. This hydroxyl group is also part of the Zn complex to histidine 66, cysteine 44, and cysteine 173 and threonine 46. The carboxylic acid of Compound IV-10 hydrogen bonds to the glutamine 111 and forms a salt bridge with lysine 283. […]
Once the crystal structures were solved, a distance measurement was made. […] For the second crystal structure with Compound V-1 bound to GSNOR and NAD+, the distance between the hydroxyl group and the carboxylic acid found to be 12.34 Å (measured in the same manner as described above). […]

[2] = Mouse pharmacokinetic (PK) study; format: in vivo; conditions: male, BALB/c, plasma, po, 10 mg/kg, male BALB/c mice, 2 mg/kg IV, 10 mg/kg PO, read-out: oral bioavailability (% F)
Source text: The mouse was used to determine the pharmacokinetics of compounds of the invention. This species is widely used to assess the bioavailability of compounds by administering both oral (PO) and intravenous (IV) test articles. Efficacy of the compounds of the invention was compared by assessing plasma exposure in male BALB/c mice either via IV or PO administration at the times of peak activity.
Compounds of the invention were reconstituted in a phosphate buffered saline (PBS)/10% Solutol (HS 15) clear solution resulting in a concentration of 0.2 mg/mL and administered to mice (2 mg/kg) as a single IV dose. Animals were dosed via the lateral tail vein. Blood samples were collected at designated time points (0.083, 0.25, 0.5, 1, 2, 4, 8, 16, 24 hours) by cardiac puncture under isoflurane anesthesia (up to 1 mL blood per animal). The blood was collected into tubes containing Li-Heparin. The blood samples were kept on ice until centrifugation within approximately 30 minutes of collection. The plasma was transferred into labeled polypropylene tubes and frozen at −70° C. until analyzed by LC/MS/MS.
The compounds of the invention were reconstituted in 40% Propylene Glycol/40% Propylene Carbonate/20% of a 5% Sucrose clear solution resulting in a concentration of 2 mg/mL and administered to mice (10 mg/kg) as a single oral dose via gavage. Blood samples were collected at 0.25, 0.5, 1, 2, 4, 8, 12, 16, 20 and 24 hours post dose by cardiac puncture under isoflurane anesthesia. The blood was collected in tubes containing Li-Heparin. The blood samples were kept on ice until centrifugation within approximately 30 minutes of collection. The plasma was transferred into labeled polypropylene tubes and frozen at −70° C. until analyzed by LC/MS/MS.
Plasma samples at each timepoint were analyzed using a LC-MS/MS with a lower limit of quantification (LLOQ) of 1 ng/mL. Plasma was analyzed to determine the amount of the compound of the invention in each sample and regression curves generated for each compounds of the invention in the relevant matrixes.
WinNonlin analysis was used for calculating PK parameters for both the IV and PO administrations:
PK parameters for IV portion—AUClast; AUCINF; T1/2; Cl; Vss; Cmax; MRT
PK parameters for PO portion—AUClast; AUCINF; T1/2; Cmax; Cl, MRT.
In addition to the above PK parameters, bioavailability (% F) was calculated.

T1 sequence (P11766 whole entry): as above

## O=C(O)c1ccc(Oc2c(C(F)(F)F)oc3cc(O)ccc3c2=O)cc1 [Compound V-1, 4-(7-hydroxy-4-oxo-2-(trifluoromethyl)-4H-chromen-3-yloxy)benzoic acid]
[1]
  IC50: 100 to 1000 nM
GSNOR and NAD+
  distance between the hydroxyl group and the carboxylic acid: 12.34 Å

## O=C(O)c1ccc(-c2c(C(F)(F)F)oc3cc(O)ccc3c2=O)cc1 [IV-10, 4-(7-hydroxy-4-oxo-2-(trifluoromethyl)-4H-chromen-3-yl)benzoic acid]
[1]; GSNOR inhibitor activity, Tables 1-6, read-out: IC50 range
  IC50: < 100 nM
GSNOR and NAD+
  distance between the hydroxyl group and the carboxylic acid: 12.07 Å
[2]
  bioavailability: > 9%
